The source of these data is patent US10913753B2, “Thienopyridine carboxamides as ubiquitin-specific protease inhibitors” (FORMA Therapeutics, Inc., priority 2016, dated 2021).

The target in one assay is USP28 (Homo sapiens (Human), UniProt Q96RU2). Nature of the assay: Ubiquitin-Rhodamine 110 Assay for USP28 Activity. It counts as biochemical. In a few lines:
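Single-point screen at 10 μM, 90 min; follow-up dose-response (25 μM top, 3-fold) with 75 pM USP28 (1-1077)-TEV-6*His, 30 min compound preincubation, Ub-Rh110 substrate for 20 min at room temperature, citric acid stop. Buffer pH 8.0 Tris; fluorescence 485/535 nm; IC50 by 4-parameter logistic fit of % inhibition.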

The target in the next assay is USP25 (Homo sapiens (Human), UniProt Q9UHP3). Nature of the assay: Ubiquitin-Rhodamine 110 Assay for USP25 Activity. It counts as biochemical. A digest of the protocol:
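USP25-His6 (75 pM) preincubated 30 min with compound (25 μM to 1.3 nM, 10-point 3-fold), then Ub-Rh110 added; 45 min at room temperature in pH 8.0 Tris buffer with BME, BGG, Triton X-100, stopped with 10 mM citric acid. Fluorescence 485/535 nm; % inhibition vs no-enzyme and DMSO controls, IC50 by 4-parameter logistic fit.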

One may read the IC50 as the concentration that inhibits the measured activity by half. Read a low IC50 as higher potency.

Sequence of USP28 (Q96RU2 whole entry): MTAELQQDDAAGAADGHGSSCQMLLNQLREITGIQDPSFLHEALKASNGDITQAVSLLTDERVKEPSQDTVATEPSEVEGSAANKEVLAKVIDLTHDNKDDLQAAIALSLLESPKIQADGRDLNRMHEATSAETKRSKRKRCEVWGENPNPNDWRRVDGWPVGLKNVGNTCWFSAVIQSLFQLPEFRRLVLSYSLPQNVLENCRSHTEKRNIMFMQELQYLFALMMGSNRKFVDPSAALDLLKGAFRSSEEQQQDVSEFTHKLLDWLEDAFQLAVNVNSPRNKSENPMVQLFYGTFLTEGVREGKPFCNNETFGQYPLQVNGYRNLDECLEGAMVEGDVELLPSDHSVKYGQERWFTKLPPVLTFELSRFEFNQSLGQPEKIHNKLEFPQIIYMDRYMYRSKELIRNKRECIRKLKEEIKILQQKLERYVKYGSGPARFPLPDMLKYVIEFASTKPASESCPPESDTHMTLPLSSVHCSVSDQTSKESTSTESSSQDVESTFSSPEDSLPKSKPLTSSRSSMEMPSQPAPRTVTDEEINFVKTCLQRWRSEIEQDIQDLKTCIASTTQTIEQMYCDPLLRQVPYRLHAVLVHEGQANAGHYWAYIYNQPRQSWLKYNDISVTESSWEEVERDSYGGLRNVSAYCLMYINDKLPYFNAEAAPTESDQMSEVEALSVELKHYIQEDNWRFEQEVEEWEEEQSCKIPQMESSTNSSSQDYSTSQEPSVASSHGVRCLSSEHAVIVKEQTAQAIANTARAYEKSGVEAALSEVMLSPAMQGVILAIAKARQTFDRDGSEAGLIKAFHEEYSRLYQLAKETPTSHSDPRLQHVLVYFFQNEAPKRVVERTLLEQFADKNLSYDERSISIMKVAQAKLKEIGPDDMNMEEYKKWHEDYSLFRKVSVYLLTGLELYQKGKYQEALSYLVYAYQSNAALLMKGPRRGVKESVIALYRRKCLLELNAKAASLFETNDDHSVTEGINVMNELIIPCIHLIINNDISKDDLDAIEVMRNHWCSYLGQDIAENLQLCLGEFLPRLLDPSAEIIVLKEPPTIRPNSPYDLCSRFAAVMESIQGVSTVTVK
Sequence of USP25 (Q9UHP3 whole entry): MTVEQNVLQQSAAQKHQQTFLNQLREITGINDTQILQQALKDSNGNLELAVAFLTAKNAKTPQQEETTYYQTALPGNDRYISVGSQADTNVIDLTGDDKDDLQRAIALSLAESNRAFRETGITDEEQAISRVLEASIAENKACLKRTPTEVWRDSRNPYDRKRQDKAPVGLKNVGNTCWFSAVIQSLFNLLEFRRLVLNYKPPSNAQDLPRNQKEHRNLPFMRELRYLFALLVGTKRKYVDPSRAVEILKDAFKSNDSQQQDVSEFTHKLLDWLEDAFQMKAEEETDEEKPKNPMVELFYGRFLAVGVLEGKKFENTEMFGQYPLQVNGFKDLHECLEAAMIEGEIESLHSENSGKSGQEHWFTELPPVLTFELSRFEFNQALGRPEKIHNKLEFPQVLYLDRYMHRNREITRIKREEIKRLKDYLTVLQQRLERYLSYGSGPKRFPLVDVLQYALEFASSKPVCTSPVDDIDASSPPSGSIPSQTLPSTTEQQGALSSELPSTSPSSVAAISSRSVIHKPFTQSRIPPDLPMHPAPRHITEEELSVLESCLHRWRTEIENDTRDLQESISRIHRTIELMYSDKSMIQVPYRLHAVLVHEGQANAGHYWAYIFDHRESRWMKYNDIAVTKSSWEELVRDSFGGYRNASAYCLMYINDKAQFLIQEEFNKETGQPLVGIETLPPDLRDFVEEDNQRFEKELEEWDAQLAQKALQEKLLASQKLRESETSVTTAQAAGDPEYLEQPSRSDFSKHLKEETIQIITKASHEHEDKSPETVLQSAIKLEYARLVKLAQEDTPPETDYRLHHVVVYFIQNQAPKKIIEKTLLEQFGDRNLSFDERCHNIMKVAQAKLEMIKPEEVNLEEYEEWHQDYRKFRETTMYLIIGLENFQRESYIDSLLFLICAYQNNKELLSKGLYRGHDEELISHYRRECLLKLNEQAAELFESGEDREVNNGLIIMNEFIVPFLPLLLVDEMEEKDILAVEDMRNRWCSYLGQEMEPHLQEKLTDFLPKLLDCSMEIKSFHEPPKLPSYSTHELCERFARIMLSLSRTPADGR

For `Cc1ccc2c(N)c(C(=O)NCCc3ccc(N4CCNCC4)cc3)sc2n1` [Example I-1, 3-Amino-6-methyl-N-(4-(piperazin-1-yl)phenethyl)thieno[2,3-b]pyridine-2-carboxamide], the IC50 against USP28 and on USP25 was 0.2 to 2 µM in each case.
On to `Cc1ccc2c(N)c(C(=O)NCCc3ccc4c(c3)CNCC4)sc2n1` [Example I-90], for which the IC50 against USP28 and on USP25 was 0.2 to 2 µM in each case.
`Cc1nc2sc(C(=O)NC[C@@H](C)c3cc(F)c(N4CC5CCC(C4)N5)cc3F)c(N)c2cc1F` (single isomer, unassigned) [Example I-111]: the values for the IC50 against USP28 and against USP25 were under 0.2 µM and 0.2 to 2 µM, respectively.
As for `Cc1ccc2c(N)c(C(=O)NCCc3ccc(O[C@@H]4COC5(CNC5)C4)cc3)sc2n1` (single isomer, unassigned) [Example I-218], the IC50 on USP28 and on USP25 was 0.2 to 2 µM each time.
For `Cc1ccc2c(N)c(C(=O)NCCc3ccc(N4CCNCC4)c(OC(F)F)c3)sc2n1` [Example I-73, 3-Amino-N-(3-(difluoromethoxy)-4-(piperazin-1-yl)phenethyl)-6-methylthieno[2,3-b]pyridine-2-carboxamide], the IC50 at USP28 and at USP25 was 0.2 to 2 µM in each case.
For the compound `Cc1ccc2c(N)c(C(=O)NCCc3ccc(N4CCNCC4)c(F)c3)sc2n1` [Example I-10, 3-Amino-N-(3-fluoro-4-(piperazin-1-yl)phenethyl)-6-methylthieno[2,3-b]pyridine-2-carboxamide], the IC50 at USP28 was in the range of 2 to 10 µM; against USP25 it was 0.2 to 2 µM.
The like results for `Cc1cc(C(F)(F)F)c2c(N)c(C(=O)NCCc3ccc(N4CCNCC4)c(F)c3)sc2n1` [Compound I-7] were, in that order, 0.2 to 2 µM and under 0.2 µM.
With `CN[C@H]1CCN(c2ccc(CCNC(=O)c3sc4nc(C)ccc4c3N)cc2Cl)C1` [Example I-79], the IC50 against USP28 and against USP25 was 0.2 to 2 µM in each case.
For the compound `Cc1nc2sc(C(=O)NCCc3ccc(N4CCNCC4)cc3)c(N)c2cc1N` [Example I-198, 3,5-Diamino-6-methyl-N-(4-(piperazin-1-yl)phenethyl)thieno[2,3-b]pyridine-2-carboxamide], the values for the IC50 against USP28 and at USP25 were 2 to 10 µM and 10 to 25 µM, respectively.
Regarding `C[C@H](O)c1ccc2c(N)c(C(=O)NCCc3ccc(N4CCNCC4)cc3)sc2n1` (single isomer, unassigned) [Example I-221], the IC50 against USP28 and at USP25 was 10 to 25 µM throughout.
Consider `Cc1ccc2c(N)c(C(=O)NC[C@H](C)c3ccc(N4CC5CCC(C4)N5)cc3F)sc2n1` (single isomer, unassigned) [Example I-104], for which the IC50 at USP28 and on USP25 was 0.2 to 2 µM in each case.
As for `Cc1ccc2c(N)c(C(=O)NCCc3ccc(N4CCNCC4)cc3-c3ccccc3)sc2n1` [Example I-82], the IC50 against USP28 and on USP25 was under 0.2 µM in each case.
As for `Cc1cc(N)nc2sc(C(=O)NCCc3ccc(N4CCNCC4)cc3)c(N)c12` [Example I-183, 3,6-Diamino-4-methyl-N-(4-(piperazin-1-yl)phenethyl)thieno[2,3-b]pyridine-2-carboxamide], the IC50 on USP28 and against USP25 was 0.2 to 2 µM in each case.
`CCc1ccc2c(N)c(C(=O)NCCc3ccc(N4CCNCC4)cc3)sc2n1` [Compound I-47]: the IC50 against USP28 and against USP25 was under 0.2 µM in each case.
For `Cc1ccc2c(N)c(C(=O)NCCc3ccc(N4CC5CC(C4)N5)cc3)sc2n1` [Compound I-65], the IC50 against USP28 and against USP25 was under 0.2 µM throughout.
On to `Cc1cc(C(F)F)nc2sc(C(=O)NCCc3ccc(N4CCNCC4)cc3)c(N)c12` [Compound I-62], for which the IC50 against USP28 and at USP25 was under 0.2 µM in each case.
With `C[C@H](CNC(=O)c1sc2ncc(F)cc2c1N)c1cc(F)c(N2CC3CCC(C2)N3)cc1F` (single isomer, unassigned) [Example I-101], the IC50 on USP28 and on USP25 was 2 to 10 µM in each case.
As for `Cc1cc(C(F)F)c2c(N)c(C(=O)NCCc3ccc(N4CCNCC4)cc3)sc2n1` [Compound I-14], the IC50 against USP28 and against USP25 was under 0.2 µM in each case.
As to `Cc1ccc2c(N)c(C(=O)NCCc3ccc(C4CC5CCC(C4)N5)cc3)sc2n1` (single isomer, unassigned) [Example I-172, N-(4-(8-azabicyclo[3.2.1]octan-3-yl)phenethyl)-3-amino-6-methylthieno[2,3-b]pyridine-2-carboxamide], the 50% inhibitory concentration (IC50) on USP28 and at USP25 was under 0.2 µM throughout.
With `Cc1ccc2c(N)c(C(=O)NCCc3cccc(C(=O)O)c3)sc2n1` [Example I-175], the IC50 at USP28 and against USP25 was 2 to 10 µM each time.
In the case of `Cc1ccc2c(N)c(C(=O)NCCc3ccc(N4CCNCC4)cc3Cl)sc2n1` [Example I-76], the IC50 against USP28 was under 0.2 µM; at USP25, 0.2 to 2 µM.
Regarding `Cc1ccc2c(N)c(C(=O)NCCc3cc(F)c(N4CCNCC4)cc3F)sc2n1` [Example I-11, 3-Amino-N-(2,5-difluoro-4-(piperazin-1-yl)phenethyl)-6-methylthieno[2,3-b]pyridine-2-carboxamide], the IC50 against USP28 and against USP25 was 0.2 to 2 µM throughout.
On to `Cc1ccc2c(N)c(C(=O)N[C@H]3C[C@H](c4ccc(N5CCNCC5)cc4)C3)sc2n1` [Example I-92, trans-3-amino-6-methyl-N-(3-(4-(piperazin-1-yl)phenyl)cyclobutyl)thieno[2,3-b]pyridine-2-carboxamide], for which the IC50 against USP28 and on USP25 was 0.2 to 2 µM throughout.
`Cc1ccc2c(N)c(C(=O)N[C@H]3C[C@@H](c4ccc(N5CCNCC5)cc4)C3)sc2n1` [Example I-91, cis-3-Amino-6-methyl-N-(3-(4-(piperazin-1-yl)phenyl)cyclobutyl)thieno [2,3-b]pyridine-2-carboxamide]: the IC50 against USP28 and against USP25 was 0.2 to 2 µM throughout.
In the case of `Cc1ccc2c(N)c(C(=O)NCCc3ccc(-n4ncc5c4CNC5)cc3)sc2n1` [Compound I-38], the IC50 fell in the range of 0.2 to 2 µM on USP28 and 2 to 10 µM at USP25.
Consider `CN[C@@H]1CCN(c2ccc(CCNC(=O)c3sc4nc(C)ccc4c3N)cc2Cl)C1` [Example I-85], for which the IC50 against USP28 and against USP25 was 0.2 to 2 µM in each case.
For the compound `Nc1c(C(=O)NCCc2ccc(N3CCNCC3)cc2)sc2nc3c(cc12)CCC3` [Compound I-29], the IC50 at USP28 and against USP25 was 2 to 10 µM in each case.
`CCc1ccc2c(N)c(C(=O)NCCc3cc(F)c(N4CCNCC4)cc3F)sc2n1` [Compound I-48]: the IC50 on USP28 and against USP25 was under 0.2 µM each time.
With `Cc1ccc2c(N)c(C(=O)NCCc3ccc(C4CCNCC4)c(Cl)c3)sc2n1` [Compound I-205], the IC50 against USP28 is under 0.2 µM; on USP25, 0.2 to 2 µM.
On to `CCc1cc(CCNC(=O)c2sc3nc(C)ccc3c2N)ccc1N1CC2CCC(C1)N2` [Compound I-44], for which the IC50 against USP28 and on USP25 was under 0.2 µM each time.
On to `COCc1cc(N2CCNCC2)ccc1CCNC(=O)c1sc2nc(C)ccc2c1N` [Compound I-37], for which the IC50 at USP28 was under 0.2 µM; against USP25, 0.2 to 2 µM.
Take `CNc1ccc2c(N)c(C(=O)NCCc3ccc(N4CCN(C)CC4)cc3)sc2n1` [Example I-195]: the IC50 is under 0.2 µM at USP28 and 0.2 to 2 µM against USP25.
For the compound `Nc1c(C(=O)NCCc2ccc(N3CCNCC3)cc2)sc2nc3c(cc12)CCCC3` [Compound I-30], the IC50 was 2 to 10 µM on USP28 and 10 to 25 µM against USP25.
In the case of `Cc1ccc2c(N)c(C(=O)NCCc3ccc(N4CCNCC4)c(C4CC4)c3)sc2n1` [Compound I-6], the values for the IC50 at USP28 and on USP25 were under 0.2 µM and 0.2 to 2 µM, respectively.
The like results for `CN[C@H]1CN(c2cc(F)c(CCNC(=O)c3sc4nc(C)ccc4c3N)cc2F)C[C@@H]1F` (single isomer, unassigned) [Example I-214] were, in that order, 0.2 to 2 µM and 2 to 10 µM.
As for `Nc1c(C(=O)NCCc2ccc(C3CCNCC3)cc2)sc2nc(Cl)ccc12` [Compound I-60], the IC50 on USP28 and against USP25 was 0.2 to 2 µM throughout.
Take `Cc1nc2sc(C(=O)NC[C@H](C)c3cc(F)c(N4CCNCC4)cc3F)c(N)c2cc1F` [Example I-100]: the values for the IC50 against USP28 and against USP25 were 0.2 to 2 µM and 2 to 10 µM, respectively.
The like results for `Cc1ccc2c(N)c(C(=O)NCCc3ccc(C(=O)O)cc3)sc2n1` [Example I-173, 4-(2-(3-Amino-6-methylthieno[2,3-b]pyridine-2-carboxamido)ethyl)benzoic acid] were, in that order, 0.2 to 2 µM and 0.2 to 2 µM.
The like results for `CCOc1cc(CCNC(=O)c2sc3nc(C)ccc3c2N)ccc1N1CCNCC1` [Example I-83] were, in that order, 0.2 to 2 µM and 0.2 to 2 µM.
On to `Cc1ccc2c(N)c(C(=O)NCCc3ccc(N4CC[C@H]5NCC[C@H]54)cc3)sc2n1` (single isomer, unassigned) [Example I-94], for which the IC50 against USP28 and against USP25 was 0.2 to 2 µM in each case.
With `Nc1c(C(=O)NCCc2ccc(N3CCNCC3)cc2)sc2nc3c(cc12)CCC3O` (centres unmarked) [Example I-223, 3-Amino-7-hydroxy-N-(4-(piperazin-1-yl)phenethyl)-6,7-dihydro-5H-cyclopenta[b]thieno[3,2-e]pyridine-2-carboxamide], the results for the IC50 on USP28 and on USP25 were 2 to 10 µM and 0.2 to 2 µM, respectively.
The like results for `Cc1cc(N)nc2sc(C(=O)NCCc3ccc(N4CCNCC4)c(Cl)c3)c(N)c12` [Compound I-17] were, in that order, 0.2 to 2 µM and 2 to 10 µM.
With `Cc1ccc2c(N)c(C(=O)NCCc3ccc(-c4cnn5c4CNCC5)cc3)sc2n1` [Compound I-12], the IC50 against USP28 is under 0.2 µM; against USP25, 0.2 to 2 µM.
